Reference: ChEMBL document CHEMBL1201862, “PubChem BioAssay data set” (2004)
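Interpolation was linear, between the two tested concentrations surrounding the appropriate level; five concentrations were tested over 48 hours in 96-well plates. At the GI50, growth is halved.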 Activity calls are given as the source filed them. Cut-off read from the data, not from the text of the source: active = GI50 up to about 1.1 µM and inactive = higher.

Tests used:
Assay in all cases: inhibition of tumour cell growth, NCI panel, 48 h
IGROV-1 = system: IGROV-1
K562 = system: K562
KM12 = system: KM12
LOX IMVI = system: LOX IMVI
M14 = system: M14
MOLT-4 = system: MOLT-4
Malme-3M = system: Malme-3M
NCI-H226 = system: NCI-H226
NCI-H23 = system: NCI-H23
NCI-H522 = system: NCI-H522
OVCAR-8 = system: OVCAR-8
PC-3 = system: PC-3
RPMI-8226 = system: RPMI-8226
SF-539 = system: SF-539
SK-MEL-28 = system: SK-MEL-28
SK-MEL-2 = system: SK-MEL-2
SNB-19 = system: SNB-19
SR = system: SR
SW-620 = system: SW-620
UACC-257 = system: UACC-257

SMILES | GI50 (IGROV-1) | GI50 (K562) | GI50 (KM12) | GI50 (LOX IMVI) | GI50 (M14) | GI50 (MOLT-4) | GI50 (Malme-3M) | GI50 (NCI-H226) | GI50 (NCI-H23) | GI50 (NCI-H522) | GI50 (OVCAR-8) | GI50 (PC-3) | GI50 (RPMI-8226) | GI50 (SF-539) | GI50 (SK-MEL-28) | GI50 (SK-MEL-2) | GI50 (SNB-19) | GI50 (SR) | GI50 (SW-620) | GI50 (UACC-257)
Nc1nc(N)c(-c2cccc(C(F)(F)F)c2)c(Cc2cccc(C(F)(F)F)c2)n1 | 1.91 µM (inactive) | 0.449 µM (active) | 5.15 µM (inactive) | 1.35 µM (inactive) | 1.22 µM (inactive) | 2.9 µM (inactive) | 12.4 µM (inactive) | 10.4 µM (inactive) | 2.01 µM (inactive) | 4.06 µM (inactive) | 8.49 µM (inactive) | 11.7 µM (inactive) | 6.73 µM (inactive) | 4.41 µM (inactive) | 11.4 µM (inactive) | 7.71 µM (inactive) | 5.7 µM (inactive) | 1.25 µM (inactive) | 7.33 µM (inactive) | 3.43 µM (inactive)
NCCC1([N+](=O)[O-])CCNCC1 | > 100 µM (inactive) | > 100 µM (inactive) | > 100 µM (inactive) | > 100 µM (inactive) | > 100 µM (inactive) | > 100 µM (inactive) | > 100 µM (inactive) | > 100 µM (inactive) | > 100 µM (inactive) | > 86.5 µM (inactive) | > 100 µM (inactive) | > 100 µM (inactive) | > 100 µM (inactive) | > 100 µM (inactive) | > 26.8 µM (inactive) | > 100 µM (inactive) | > 100 µM (inactive) | > 100 µM (inactive) | > 100 µM (inactive) | > 100 µM (inactive)
COC(=O)/C=C/c1ccc(OP(=O)(O)O)c(OC)c1 | > 100 µM (inactive) |  | > 100 µM (inactive) | > 100 µM (inactive) | > 100 µM (inactive) | > 100 µM (inactive) | > 100 µM (inactive) | > 100 µM (inactive) | > 100 µM (inactive) | > 100 µM (inactive) | > 100 µM (inactive) | > 100 µM (inactive) | > 100 µM (inactive) | > 100 µM (inactive) | > 100 µM (inactive) | > 100 µM (inactive) | > 100 µM (inactive) | > 100 µM (inactive) | > 100 µM (inactive) | > 100 µM (inactive)
O=C(NC1CCCCC1NC(c1ccccc1)(c1ccccc1)c1ccccc1)C(=O)NC1CCCCC1NC(c1ccccc1)(c1ccccc1)c1ccccc1 (stereo unspecified) | 69.2 µM (inactive) | > 100 µM (inactive) | > 100 µM (inactive) | > 100 µM (inactive) |  | > 100 µM (inactive) | > 100 µM (inactive) | 59.3 µM (inactive) | > 100 µM (inactive) | 89.9 µM (inactive) | > 100 µM (inactive) | > 100 µM (inactive) | > 100 µM (inactive) | 51.2 µM (inactive) | > 100 µM (inactive) | > 100 µM (inactive) | > 100 µM (inactive) | > 100 µM (inactive) | > 100 µM (inactive) | > 100 µM (inactive)
Cc1[nH]c2ccccc2c1/C=N/NC(=O)c1cccc(I)c1 | 17.7 µM (inactive) | 24.5 µM (inactive) | 16.3 µM (inactive) | 15.7 µM (inactive) | 15 µM (inactive) | 23.3 µM (inactive) | 24.2 µM (inactive) |  | 19.1 µM (inactive) | 24.3 µM (inactive) | 26.5 µM (inactive) | 23 µM (inactive) | 19.9 µM (inactive) | 18.8 µM (inactive) | 22.7 µM (inactive) | 19.2 µM (inactive) | 29 µM (inactive) | 17.9 µM (inactive) | 29 µM (inactive) | 23.7 µM (inactive)
Nc1ncnc2c1ncn2[C@@H]1O[C@H](COC(c2ccccc2)(c2ccccc2)c2ccccc2)[C@@H](OC(=S)Oc2ccccc2)[C@@H]1F | 3.23 µM (inactive) | 3.34 µM (inactive) | 4.72 µM (inactive) | 3.88 µM (inactive) | 5.53 µM (inactive) | 2.51 µM (inactive) |  | 11.4 µM (inactive) | 3.94 µM (inactive) | 2.24 µM (inactive) | 3.37 µM (inactive) | 3.88 µM (inactive) | 3.49 µM (inactive) | 8.99 µM (inactive) | 15.2 µM (inactive) | 5.47 µM (inactive) | 11.5 µM (inactive) | 2.72 µM (inactive) | 4.47 µM (inactive) | 14.6 µM (inactive)
CC(=O)c1ccc2c3c1[C@H]1O[C@H]1c1cccc(c1-3)[C@@H]1O[C@H]21 | 0.112 µM (active) | 0.444 µM (active) | 1.87 µM (inactive) | 0.31 µM (active) | 1.61 µM (inactive) | 3.06 µM (inactive) | 1.37 µM (inactive) | 29.4 µM (inactive) | 1.49 µM (inactive) | 0.286 µM (active) | 1.56 µM (inactive) | 2.47 µM (inactive) | 2.09 µM (inactive) |  | 1.79 µM (inactive) | 2.74 µM (inactive) | 2.98 µM (inactive) | 4.57 µM (inactive) | 0.855 µM (active) | 2.04 µM (inactive)
Cc1ccc(SCC(OCn2cnc3c(Cl)nc(N)nc32)[C@H](C)F)cc1 (stereo partly specified) | > 100 µM (inactive) |  | 81.8 µM (inactive) | > 100 µM (inactive) | > 100 µM (inactive) | 18.9 µM (inactive) | 88.9 µM (inactive) | > 100 µM (inactive) | 50.9 µM (inactive) | 13.8 µM (inactive) | 63 µM (inactive) | 60.5 µM (inactive) | 36.9 µM (inactive) | > 100 µM (inactive) | > 100 µM (inactive) | > 100 µM (inactive) | > 100 µM (inactive) | 28.2 µM (inactive) | > 100 µM (inactive) | 21.1 µM (inactive)
O=P(OCc1ccccc1)(OCc1ccccc1)C(O)/C=C/c1ccccc1 (stereo unspecified) | 19.6 µM (inactive) | 34.2 µM (inactive) | 19.8 µM (inactive) | 14.9 µM (inactive) | 18.1 µM (inactive) | 21.6 µM (inactive) | 19.6 µM (inactive) | 34.8 µM (inactive) | 20.2 µM (inactive) | 23.8 µM (inactive) | 24 µM (inactive) | 28 µM (inactive) | 23.6 µM (inactive) |  | 37.9 µM (inactive) | 20.7 µM (inactive) | 23 µM (inactive) | 19.9 µM (inactive) | 26.1 µM (inactive) | 17 µM (inactive)
CC(C)(Cc1ccccc1)N1C(=O)N1C(C)(C)Cc1ccccc1 | 29.9 µM (inactive) | 27.4 µM (inactive) | > 100 µM (inactive) | 17.7 µM (inactive) | 34.8 µM (inactive) | 18.7 µM (inactive) | 23.4 µM (inactive) | 16.4 µM (inactive) | 24 µM (inactive) | 13.8 µM (inactive) | > 100 µM (inactive) | 47.5 µM (inactive) | 16.5 µM (inactive) | 33.3 µM (inactive) | > 100 µM (inactive) | 19.7 µM (inactive) | > 100 µM (inactive) | 20.6 µM (inactive) | 57 µM (inactive) | 40.9 µM (inactive)
COC(=O)C1=C(OC(=O)/C(=C/c2ccccc2)c2ccc(OC)cc2)C(C(=O)OC)[C@@]2(O)[C@@H](C(=O)OC)[C@H](C)C[C@@H]1[C@@H]2C(=O)OC (stereo partly specified) | 55.7 µM (inactive) | > 100 µM (inactive) | > 100 µM (inactive) | > 100 µM (inactive) | > 100 µM (inactive) | > 100 µM (inactive) | > 100 µM (inactive) | > 100 µM (inactive) | 50.1 µM (inactive) | 35.3 µM (inactive) | 35.6 µM (inactive) | > 100 µM (inactive) | > 100 µM (inactive) | > 100 µM (inactive) | > 100 µM (inactive) | > 100 µM (inactive) | 32.4 µM (inactive) | > 100 µM (inactive) | > 100 µM (inactive) | > 100 µM (inactive)
CCOC(=O)C(CS)NC(=O)CCCCCCCC(=O)O (stereo unspecified) | > 100 µM (inactive) | > 100 µM (inactive) | > 100 µM (inactive) | > 100 µM (inactive) | > 100 µM (inactive) | > 100 µM (inactive) | > 100 µM (inactive) | > 100 µM (inactive) | > 100 µM (inactive) | > 100 µM (inactive) | > 100 µM (inactive) | > 100 µM (inactive) | > 100 µM (inactive) |  | > 100 µM (inactive) | > 100 µM (inactive) | > 100 µM (inactive) | > 100 µM (inactive) | > 100 µM (inactive) | > 100 µM (inactive)
O=[N+]([O-])/C(Cl)=C(\Sc1ccccc1)C(Cl)=C(Cl)Cl | 1.28 µM (inactive) | 0.294 µM (active) | 1.79 µM (inactive) | 0.207 µM (active) | 0.188 µM (active) | 0.348 µM (active) | 0.647 µM (active) | 2.23 µM (inactive) | 0.473 µM (active) | 0.26 µM (active) | 0.191 µM (active) | 2.01 µM (inactive) | 0.242 µM (active) | 1.56 µM (inactive) | 1.41 µM (inactive) | 1.77 µM (inactive) | 2.22 µM (inactive) | 0.292 µM (active) |  | 0.404 µM (active)
CC(C)(C)C(=O)CP(=O)(O)O | > 100 µM (inactive) | > 100 µM (inactive) | > 100 µM (inactive) | > 100 µM (inactive) | > 100 µM (inactive) | > 100 µM (inactive) | > 100 µM (inactive) | > 100 µM (inactive) | > 100 µM (inactive) | > 100 µM (inactive) | > 100 µM (inactive) | > 100 µM (inactive) | > 100 µM (inactive) | > 100 µM (inactive) | > 100 µM (inactive) | > 100 µM (inactive) | > 100 µM (inactive) | > 100 µM (inactive) | > 100 µM (inactive) | > 100 µM (inactive)
